Series [1] has as its target T1, PGF2alpha receptor (Rattus norvegicus, UniProt P43118).
T1 construct: in the isolated rat uterus; from tissue; host or cells: isolated rat uterus
In words: PGF2alpha antagonist effect in vitro in isolated rat uterus. The settings on record: compound 2 × 10^-6 M, PGF2alpha 1.4 × 10^-7 M, read-out: Percentual inhibition at concentrations of 2 × 10^-6 M against 1.4 × 10^-7 M PGF2alpha. The text has this:
(§1) In vitro, in the isolated rat uterus (Table 1), and in vivo in rabbits under urethane anesthesis (Table 2) they antagonize the uterine contraction inducing activity of PGF2alpha. The competitive antagonist effect of the compounds is selective and protracted, while it fails to influence the uterine contraction inducing effect of other endogeneous compounds, i.e. oxytocin. This would enable their use as spasmolytic agents of new mechanism of action in the field of obstetrics and gynecology for the treatment of dysmenorrhea and anovulation, and the prevention of imminent and habitual abortus and miscarriage.
PGF2alpha antagonist effect of the compounds of general
formula (I) in vitro in isolated rat uterus
Method: 1. J. H. Gaddum and K. A. Hammed:
2. O. Arunlakshana and H. O Schild:
Compound Percentual inhibition at concentrations

For series [2], the system named is PGF2alpha receptor. In words: In vivo PGF2alpha antagonist effect in urethane anesthesized rabbits. The settings on record: PGF2alpha 6.25 μg/kg iv; for Duration of the effect: rabbits; for Inhibition: urethane anesthesized rabbits.
Text: as §1
In vivo PGF2alpha antagonist effect of pyrazole deriva-
tives of general formula (I) in urethane (1.2 g/kg iv)
1. D. F. Hawkins: Agents Acting on the Uterus.
In: Evaluation of Drug Activities: Pharma-
cometrics. Edited by R. Lawrence and A. L.
Bacharach. Academic Press, London, p. 680 (1964)
2. A. R. Cushny: J. Physiol. 35, 1 (1906)
PGF2alpha standard dose: 6.25 μg/kg iv

The nature of series [3]: Acute toxicity in CFLP mice (Probite analysis according to Litchfield-Wilcoxon). The following applies: mouse, in vivo. The text has this: Acute toxicity of pyrazole derivatives of
general formula (I) in CFLP mice
Method: Probite analysis according to Litchfield-
Wilcoxon [J. Pharm. Exp. Ther. 96, 99 (1949)]

In a further series the test system is uterine musculature. The settings on record: known compounds with ergoline skeleton; cited from earlier work.

Where a name gives a salt, the structure may show the parent alone. Read-outs that look alike come from different tables or passages of the source. A value given as a limit tells only on which side of the number the result lay.

T1 sequence (P43118 whole entry): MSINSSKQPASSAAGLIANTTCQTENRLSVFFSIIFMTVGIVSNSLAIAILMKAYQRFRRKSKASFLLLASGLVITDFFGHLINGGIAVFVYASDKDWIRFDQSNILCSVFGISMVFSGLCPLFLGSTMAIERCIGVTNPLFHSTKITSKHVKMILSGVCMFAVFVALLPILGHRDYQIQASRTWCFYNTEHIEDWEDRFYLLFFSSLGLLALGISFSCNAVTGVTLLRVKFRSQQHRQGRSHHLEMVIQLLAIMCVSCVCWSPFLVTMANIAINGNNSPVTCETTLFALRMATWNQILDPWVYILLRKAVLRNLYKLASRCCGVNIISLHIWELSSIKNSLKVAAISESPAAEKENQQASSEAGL

As for `Cc1nn(C[C@@H]2C=C3c4cccc5[nH]cc(c45)C[C@H]3N(C)C2)c2c1CCC2` [Example 1, 8-beta-[3(5)-Methyl-cyclopentano/4,5(3,4)/pyrazol-1-yl-methylene]-6-methyl-ergol-9-ene], the inhibition at 2 µM on PGF2alpha receptor [1] is 70%. The “Duration of the effect” value in the series with PGF2alpha receptor [2] (0.3 mg/kg intraduodenal) and with PGF2alpha receptor [2] (1.0 mg/kg intraduodenal) was more than 180 min in each case. Moreover, the Inhibition (usually how much of the control response was suppressed) in the series on PGF2alpha receptor [2] (0.3 mg/kg intraduodenal) is given as 38%; in the series on PGF2alpha receptor [2] (1.0 mg/kg intraduodenal), 49%. The LD50 (usually the dose expected to kill half of the subjects tested) in series [3] (ip, read-out: LD50 ip) was 3100 mg/kg; in series [3] (po, read-out: LD50 po), 2450 mg/kg.
Consider `Cc1nn(C[C@@H]2C=C3c4cccc5c4c(cn5C)C[C@H]3N(C)C2)c2c1CCC2` [Example 2, 8-beta-[3(5)-Methyl-cyclopentane/4,5(3,4)/pyrazol-1-yl-methylene]-1,6-dimethyl-ergol-9-ene hydrogen maleinate], for which the inhibition at 2 µM at PGF2alpha receptor [1] came out at 58%. Also, the LD50 in series [3] (ip, read-out: LD50 ip) was more than 100 mg/kg; in series [3] (po, read-out: LD50 po), more than 100 mg/kg.
Turning to `Cc1nn(C[C@@H]2C[C@@H]3c4cccc5[nH]cc(c45)C[C@H]3N(C)C2)c2c1CCC2` [Example 4, 8-beta-[3(5)-Methyl-cyclopentano/4,5(3,4)/pyrazol-1-yl-methylene]-6-methyl-ergoline], the median lethal dose (LD50) in series [3] (ip, read-out: LD50 ip) is more than 100 mg/kg; in series [3] (po, read-out: LD50 po), more than 100 mg/kg.
As for `CN1C[C@H](Cn2nc(-c3cccnc3)c3c2CCC3)C=C2c3cccc4[nH]cc(c34)C[C@H]21` [Example 5, 8-beta-[3(5)-(3-Pyridyl)-cyclopentano/4,5(3,4)/pyrazol-1-yl-methylene]-6-methyl-ergol-9-ene], the inhibition at 2 µM at PGF2alpha receptor [1] is 46%. The LD50 was more than 100 mg/kg in series [3] (ip, read-out: LD50 ip) and more than 100 mg/kg in series [3] (po, read-out: LD50 po).
For `Cc1nn(C[C@@H]2C=C3c4cccc5[nH]cc(c45)C[C@H]3N(C)C2)c2c1C(=O)CC2` [Example 6, 8-beta-[3(6)-Methyl-4(5)-oxo-cyclopentano/4,5(3,4)/pyrazol-1-yl-methylene]-6-methyl-ergol-9-ene], the LD50 was more than 200 mg/kg in series [3] (ip, read-out: LD50 ip) and 1000 mg/kg in series [3] (po, read-out: LD50 po).
Taken in the same sequence, the figures for `Cc1nn(C[C@@H]2C=C3c4cccc5[nH]cc(c45)C[C@H]3N(C)C2)c2c1C(O)CC2` (stereo partly drawn) [Example 7, 8-beta-[3(6)-Methyl-4(5)-hydroxy-cyclopentano/4,5(3,4)/pyrazol-1-yl-methylene]-6-methyl-ergol-9-ene] were more than 100 mg/kg and more than 100 mg/kg.
For `Cc1nn(C[C@@H]2C=C3c4cccc5[nH]cc(c45)C[C@H]3N(C)C2)c2c1C(=NO)CC2` [Example 8, 8-beta-[3(6)-Methyl-4(5)-hydroxy-imino-cyclopentano/4,5(3,4)/pyrazol-1-yl-methylene]-6-methyl-ergol-9-ene], the LD50 in series [3] (ip, read-out: LD50 ip) was more than 100 mg/kg; in series [3] (po, read-out: LD50 po), more than 100 mg/kg.
For the molecule `Cc1nn(C[C@@H]2C=C3c4cccc5[nH]cc(c45)C[C@H]3N(C)C2)c2c1CCCC2` [Example 9, 8-beta-[3(5)-Methyl-cyclohexano/4,5(3,4)/pyrazol-1-yl-methylene]-6-methyl-ergol-9-ene], the inhibition at 2 µM at PGF2alpha receptor [1] came out at 40%. The “Duration of the effect” value in the series with PGF2alpha receptor [2] (3.0 mg/kg intraduodenal) and in the series on PGF2alpha receptor [2] (10.0 mg/kg intraduodenal) was more than 180 min throughout. Moreover, the results for the Inhibition in the series with PGF2alpha receptor [2] (3.0 mg/kg intraduodenal) and with PGF2alpha receptor [2] (10.0 mg/kg intraduodenal) were 58% and 68%, respectively. Moreover, the LD50 in series [3] (ip, read-out: LD50 ip) was more than 100 mg/kg; in series [3] (po, read-out: LD50 po) it was more than 100 mg/kg.
With `Cc1nn(C[C@@H]2C=C3c4cccc5[nH]cc(c45)C[C@H]3N(C)C2)c2c1C(=O)CC(C)(C)C2` [Example 10], the inhibition at 2 µM at PGF2alpha receptor [1] is 66%. In addition, in the series on PGF2alpha receptor [2] (20.0 mg/kg intraduodenal), the “Duration of the effect” value came to 90 min and the Inhibition came out at 42%. Besides, in series [3] (ip, read-out: LD50 ip), the LD50 is more than 100 mg/kg. In series [3] (po, read-out: LD50 po), the LD50 was more than 100 mg/kg.
Regarding `Cc1nn(C[C@@H]2C=C3c4cccc5[nH]cc(c45)C[C@H]3N(C)C2)c2c1C(=NO)CC(C)(C)C2` [Example 11, 8-beta-[3(7),6(4)-Trimethyl-4(6)-hydroxy-imino-cyclohexano/4,5(3,4)/pyrazol-1-yl-methylene]-6-methyl-ergol-9-ene], the inhibition at 2 µM on PGF2alpha receptor [1] stood at 80%. In the series on PGF2alpha receptor [2] (20.0 mg/kg intraduodenal), the “Duration of the effect” value was more than 120 min. Moreover, the Inhibition in the series on PGF2alpha receptor [2] (20.0 mg/kg intraduodenal) amounted to 72%. In addition, the LD50 was more than 100 mg/kg in series [3] (ip, read-out: LD50 ip) and more than 100 mg/kg in series [3] (po, read-out: LD50 po).
In the case of `C=CCc1c(C)nn(C[C@@H]2C=C3c4cccc5[nH]cc(c45)C[C@H]3N(C)C2)c1C` [Example 14, 8-beta-(3,5-Dimethyl-4-allyl-pyrazol-1-yl-methylene)-6-methyl-ergol-9-ene], the inhibition at 2 µM at PGF2alpha receptor [1] was found to be 77%. Also, the LD50 in series [3] (ip, read-out: LD50 ip) was more than 100 mg/kg; in series [3] (po, read-out: LD50 po) it was more than 100 mg/kg.
In the case of `CCOC(=O)c1nn(C[C@@H]2C=C3c4cccc5[nH]cc(c45)C[C@H]3N(C)C2)c(O)c1C` [Example 15, 8-beta-(3-Carbethoxy-4-methyl-5-hydroxy-pyrazol-1-yl-methylene)-6-methyl-ergol-9-ene], at PGF2alpha receptor [1], the inhibition at 2 µM was 40%. Besides, the LD50 in series [3] (ip, read-out: LD50 ip) is more than 100 mg/kg; in series [3] (po, read-out: LD50 po) it was more than 100 mg/kg.
On to `Cc1cc(-c2ccccn2)nn1C[C@@H]1C=C2c3cccc4[nH]cc(c34)C[C@H]2N(C)C1` [Example 16, 8-beta-[3(5)-/2-Pyridyl/-5(3)-methyl-pyrazol-1-yl-methylene]-6-methyl-ergol-9-ene], for which, on PGF2alpha receptor [1], the inhibition at 2 µM came to 18%. In addition, the LD50 in series [3] (ip, read-out: LD50 ip) is more than 100 mg/kg; in series [3] (po, read-out: LD50 po), more than 100 mg/kg.
As to `Cc1cc(-c2ccccn2)nn1C[C@@H]1C[C@@H]2c3cccc4[nH]cc(c34)C[C@H]2N(C)C1` [Example 17, 8-beta-[3(5)-/2-Pyridyl/-5(3)-methyl-pyrazol-1-yl-methylene]-6-methyl-ergoline], the inhibition at 2 µM at PGF2alpha receptor [1] came out at 44%. Moreover, the results for the “Duration of the effect” value in the series on PGF2alpha receptor [2] (10.0 mg/kg intraduodenal) and with PGF2alpha receptor [2] (20.0 mg/kg intraduodenal) were 120 min and more than 150 min, respectively. The Inhibition in the series on PGF2alpha receptor [2] (10.0 mg/kg intraduodenal) was 55%; with PGF2alpha receptor [2] (20.0 mg/kg intraduodenal), 77%. In addition, the LD50 in series [3] (ip, read-out: LD50 ip) was more than 100 mg/kg; in series [3] (po, read-out: LD50 po), more than 100 mg/kg.
On to `CC(=O)c1c(C)nn(C[C@@H]2C=C3c4cccc5[nH]cc(c45)C[C@H]3N(C)C2)c1C` [Example 18, 8-beta-[3,5-Dimethyl-4-(1-oxo-ethyl)-pyrazol-1-yl-methylene]-6-methyl-ergol-9-ene], for which the LD50 in series [3] (ip, read-out: LD50 ip) is more than 100 mg/kg; in series [3] (po, read-out: LD50 po), more than 100 mg/kg.
`Cc1nn(C[C@@H]2C=C3c4cccc5[nH]cc(c45)C[C@H]3N(C)C2)c2c1CCC2` [Hydrogen-fumarate of 1, 8-beta-[3(5)-methyl-cyclopentano/4,5(3,4)/pyrazol-1-yl-methylene]-6-methyl-ergol-9-ene hydrogen fumarate]: in the series on PGF2alpha receptor [2] (3.0 mg/kg intraduodenal), the “Duration of the effect” value was more than 180 min and the Inhibition is listed as 63%.
With `CC(C)C[C@H]1C(=O)N2CCC[C@H]2[C@]2(O)O[C@](NC(=O)[C@@H]3C=C4c5cccc6[nH]c(Br)c(c56)C[C@H]4N(C)C3)(C(C)C)C(=O)N12` [bromocryptine], the “effect on the uterine musculature” value in the series on uterine musculature is given as “uterine relaxants”.
Turning to `CN1C[C@H](C(=O)N[C@]2(C)O[C@@]3(O)[C@@H]4CCCN4C(=O)[C@H](Cc4ccccc4)N3C2=O)C[C@@H]2c3cccc4[nH]cc(c34)C[C@H]21` [dihydroergotamine], the “effect on the uterine musculature” value in the series on uterine musculature is listed as “uterine relaxants”.
For the molecule `C[C@@H](CO)NC(=O)[C@@H]1C=C2c3cccc4[nH]cc(c34)C[C@H]2N(C)C1` [ergometrin], in the series with uterine musculature, the “effect on the uterine musculature” value is “inducing uterine contraction”.
With `CN1C[C@H](C(=O)N[C@]2(C)O[C@@]3(O)[C@@H]4CCCN4C(=O)[C@H](Cc4ccccc4)N3C2=O)C=C2c3cccc4[nH]cc(c34)C[C@H]21` [ergotamine], the “effect on the uterine musculature” value in the series on uterine musculature is reported as “inducing uterine contraction”.
As for `CC[C@@H](CO)NC(=O)[C@@H]1C=C2c3cccc4[nH]cc(c34)C[C@H]2N(C)C1` [methylergometrin], the “effect on the uterine musculature” value in the series with uterine musculature is “inducing uterine contraction”.
hydergine: the “effect on the uterine musculature” value in the series on uterine musculature is listed as “uterine relaxants”.

The values above are taken from patent US4632928A, “Pyrazole derivatives with an ergoline skeleton, their acid addition salts, and a process for the preparation thereof” (Richter Gedeon Vegyeszeti Gyar R.T., priority 1983, dated 1986).
